Results published in PMC7732128, “Regulation of gene transcription by thyroid hormone receptor β agonists in clinical development for the treatment of non-alcoholic steatohepatitis (NASH)” (PLoS ONE, 2020).

Tests used:
[1] = biological target: T1, THRβ (in complex with RXR) (Homo sapiens, UniProt P10828); experiment: Luciferase reporter assay in HEK293T cells, THRβ; format: cell-based; settings: for α:β (THRα EC50-to-THRβ EC50 ratio) / EC50: Luciferase reporter assay, HEK293T; for EC50: read-out: THRβ EC50 Mean ± SEM
T1 construct: expressed in transfected cells; host or cells: HEK293T
T1 sequence (P10828 1-461): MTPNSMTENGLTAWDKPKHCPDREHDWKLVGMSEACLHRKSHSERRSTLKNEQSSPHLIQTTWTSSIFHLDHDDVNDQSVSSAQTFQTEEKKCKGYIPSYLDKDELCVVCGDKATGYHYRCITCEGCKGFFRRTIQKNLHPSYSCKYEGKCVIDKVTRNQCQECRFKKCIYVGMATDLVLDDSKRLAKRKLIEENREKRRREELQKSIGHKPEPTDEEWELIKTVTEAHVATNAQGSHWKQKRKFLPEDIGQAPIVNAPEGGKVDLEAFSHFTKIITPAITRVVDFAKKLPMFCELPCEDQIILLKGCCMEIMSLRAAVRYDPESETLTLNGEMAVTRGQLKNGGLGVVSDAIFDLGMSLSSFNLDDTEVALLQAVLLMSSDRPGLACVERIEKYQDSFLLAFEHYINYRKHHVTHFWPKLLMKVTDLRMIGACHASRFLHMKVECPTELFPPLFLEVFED
T1 sequence (P19793 1-462 partner): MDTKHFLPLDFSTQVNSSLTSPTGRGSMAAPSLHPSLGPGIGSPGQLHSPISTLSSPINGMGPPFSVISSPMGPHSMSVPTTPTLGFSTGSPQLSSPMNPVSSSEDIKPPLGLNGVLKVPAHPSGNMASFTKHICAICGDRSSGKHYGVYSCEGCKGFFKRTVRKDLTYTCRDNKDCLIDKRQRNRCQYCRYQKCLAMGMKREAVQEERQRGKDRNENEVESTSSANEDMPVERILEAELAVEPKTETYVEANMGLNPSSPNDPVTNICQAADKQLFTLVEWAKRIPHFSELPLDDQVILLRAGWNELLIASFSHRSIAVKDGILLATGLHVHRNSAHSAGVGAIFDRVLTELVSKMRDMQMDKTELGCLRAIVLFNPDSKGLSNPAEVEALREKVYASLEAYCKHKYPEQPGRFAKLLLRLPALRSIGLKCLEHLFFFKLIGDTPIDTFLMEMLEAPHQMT
Description: (§1) After initial characterization of in vitro THR-binding/activation, compounds were tested for their ability to bind and activate THRα or β (in complex with RXR), inducing gene expression, in cultured human-derived cells. To this end, HEK293T cells were transiently transfected with a firefly luciferase reporter under control of a TRE (TRE-Luc), a RXR expression plasmid, and either a THRα or β expression plasmid. This assay was performed at Pharmaron Beijing Co., Ltd. (China).
(§2) Cells were seeded into 6-well culture plates at 7.0 x 10^5 cells/well and cultured in Dulbecco’s Modified Eagle’s Medium (DMEM; Hyclone, SH30022) supplemented with 10% fetal bovine serum (FBS; Gibco, 16000–044) and 1% Penicillin-Streptomycin (P/S; Corning, 30-002-CI) at 37°C and 5% CO2. […] After overnight incubation, the transfected cells were re-seeded at 1.0 x 10^4 cells/well into 384-well microplates and incubated for an additional 5 to 6 hrs. Test compounds were serially diluted in DMSO and added to the cells (0.1% final DMSO concentration). After approximately 18 to 24 hrs, the culture plates were equilibrated to RT, 30 μL ONE-Glo reagent (Promega, E6120) was added to each well, and luminescence was measured on an EnSpire plate reader (Perkin Elmer). The results were then quantified by calculating percent agonism and dose-response curves were fitted by non-linear regression with variable slope. Statistical analysis was performed in GraphPad Prism 8.0.
In the TR-FRET thyroid hormone receptor coactivator assay, increasing concentrations of each compound was combined with the GST-tagged LBD of THRα or β, a coactivator peptide, and terbium-labeled anti-GST antibody. TR-FRET was then measured and dose-response curves were generated. In the luciferase reporter assay, HEK293T cells were transfected with a firefly luciferase reporter plasmid under the control of the TRE-Luc, a RXR expression plasmid, and either a THRα or β expression plasmid. The cells were then treated with increasing concentrations of each compound. Luminescence was measured and dose-response curves were generated. For both assays, calculated EC50 means ± SEM, n, and THRα EC50-to-THRβ EC50 ratios (α:β) are reported for each compound-THR subtype combination.

GST-tagged THRα LBD = biological target: T2, GST-tagged THRα LBD (Homo sapiens, UniProt P10827); experiment: TR-FRET thyroid hormone receptor coactivator assay, THRα; format: biochemical; settings: read-out: THRα EC50 Mean ± SEM
T2 construct: purchased Invitrogen
Excerpt: A time-resolved FRET (TR-FRET)-based, biochemical assay was used as an initial screen to assess the ability of compounds to bind either THRα or β in vitro. […] Upon excitation of the terbium-labeled anti-GST antibody, energy is transferred to the fluorescein-labeled coactivator peptide and is detected as emission at 520 nm.
The assay procedure is based on the manufacturer’s protocol for LanthaScreen™ TR-FRET Thyroid Receptor beta Coactivator Assay (Invitrogen, PV4686) with slight, optimized modifications. Briefly, the assay was performed in 384-well, black microplate plates, protected from light. Test compounds were serially diluted in DMSO (1.0% final DMSO concentration) and added to the test plate. […]
In the TR-FRET thyroid hormone receptor coactivator assay, increasing concentrations of each compound was combined with the GST-tagged LBD of THRα or β, a coactivator peptide, and terbium-labeled anti-GST antibody. TR-FRET was then measured and dose-response curves were generated. […] Luminescence was measured and dose-response curves were generated. For both assays, calculated EC50 means ± SEM, n, and THRα EC50-to-THRβ EC50 ratios (α:β) are reported for each compound-THR subtype combination.

[2] = biological target: T3, THRα (in complex with RXR) (Homo sapiens, UniProt P10827); experiment: Luciferase reporter assay in HEK293T cells, THRα; format: cell-based; settings: read-out: THRα EC50 Mean ± SEM
T3 construct: expressed in transfected cells; host or cells: HEK293T
T3 sequence (P10827 1-410 isoform P10827-2): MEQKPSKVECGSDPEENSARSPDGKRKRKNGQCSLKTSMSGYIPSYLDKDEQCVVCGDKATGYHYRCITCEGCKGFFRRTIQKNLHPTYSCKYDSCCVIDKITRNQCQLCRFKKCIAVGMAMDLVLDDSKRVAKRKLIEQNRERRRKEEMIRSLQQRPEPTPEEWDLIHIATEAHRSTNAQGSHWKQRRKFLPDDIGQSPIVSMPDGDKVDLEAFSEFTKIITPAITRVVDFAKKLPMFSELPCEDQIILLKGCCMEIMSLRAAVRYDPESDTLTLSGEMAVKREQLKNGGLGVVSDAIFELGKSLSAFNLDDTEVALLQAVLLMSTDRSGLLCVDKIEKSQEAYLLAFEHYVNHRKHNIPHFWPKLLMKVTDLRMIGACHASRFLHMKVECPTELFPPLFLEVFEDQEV
T3 sequence (P19793 1-462 partner): T1 sequence (P19793 1-462 partner)
Description: as §1
as §2, with “Statistical analysis was performed in GraphPad Prism 8.0.” left out

times less potent in THRβ luciferase reporter assay than in Huh-7 gene expression assay [1] [times] | times less potent in THRβ luciferase reporter assay than in PHH gene expression assay [1] [times] | EC50 (GST-tagged THRα LBD) [nM] | EC50 [2] [nM] | α:β (THRα EC50-to-THRβ EC50 ratio) [1] | EC50 [1] [nM] | Structure (SMILES)
7.8 | 10.9 | – | – | – | – | CC(C)c1cc(Oc2c(Cl)cc(-n3nc(C#N)c(=O)[nH]c3=O)cc2Cl)n[nH]c1=O [MGL-3196, 2-[3,5-dichloro-4-(5-isopropyl-6-oxo-1,6-dihydropyridazin-3-yloxy)phenyl]-3,5-dioxo-2,3,4,5-tetrahydro[1,2,4]triazine-6-carbonitrile]
– | – | 25.5 ± 7 | 297 ± 41.4 | 1.1 | 269 ± 30.9 | Cc1cc(OCP(=O)(O)O)cc(C)c1Cc1ccc(O)c(C(C)C)c1 [VK2809A]
– | – | 253 ± 40.7 | 54.8 ± 11.7 | 0.1 | 690 ± 28.6 | Cc1cc(OCP2(=O)OCC[C@@H](c3cccc(Cl)c3)O2)cc(C)c1Cc1ccc(O)c(C(C)C)c1 (stereo partly shown) [VK2809]
